Data published in patent US20250109127A1, “METHODS OF USE OF PHENOXYPROPYLAMINE COMPOUNDS TO TREAT DEPRESSION” (Minerva Neurosciences, Inc., priority 2013, published 2025).
Counter-ions that a name gives are not always drawn.

Test system: DOPAC release in the rat prefrontal cortex
Experiment: Microdialysis: DOPAC release in prefrontal cortex after I.P. administration
Format: in vivo
Conditions: for DOPAC release, MEAN: 3 mg/kg IP; for DOPAC release, MEAN / DOPAC (% of respective basal) MEAN: n = 8
Procedure: The aim of the study was to evaluate, using microdialysis, the effects of an intraperitoneal (I.P.) administration in rats of three different doses of SON-117 on dopamine and its metabolites, serotonin and its metabolite (5-HIAA), and norepinephrine levels in prefrontal cortex.
Thirty-two adult male Wistar rats were used for the whole study (4 groups of eight animals planned for the study, Table 1).
Surgery was performed on rats weighing about 300 g at the beginning of the experiments. Rats were anaesthetized with Ketamine (50 mg/kg) & Xylazine (15 mg/kg) by intramuscular administration. The animals were placed in a stereotaxic apparatus in the flat-skull position at a constant setting of −3.3 mm between ear bars and the incisor bar. The animals were treated with a local anesthesic (xylocaine 1%, Astra Zeneca) and an analgesic (Temgesic, from Schering Plough, 0.05 mg/kg, s.c.). A rostrocaudal midline incision was made with a lancet to expose the dorsal skull surface. The “stereotaxic zero” was defined by the Bregma in accordance with Paxinos and Watson's atlas (1986). A hole was drilled in the skull with a drill and the meninges were pierced with a sterile needle to implant a CMA12 guide cannula which later received the dialysis probe.
Coordinates used for implanting guide cannula in prefrontal cortex from Bregma were anteroposterior 3.7 mm, mediolateral 0.8 mm, and dorsoventral −2 mm (top of the probe was at −5 mm). The guide cannula was fixed to the skull with two stainless steel screws (1.88 mm outside diameter) anchored. An application of dental cement was added. A plastic collar allowed each animal to be tethered to a Swivel assembly of the CMA 120 awake animal system. Following surgery, rats were kept in individual cages and allowed to recover for a minimum of 3-5 days before the experimentation. The rats were handled and put in plastic bowl for 10 min at least every day to habituate the animals to their new environment for the dialysis. An I.P. administration with saline was also performed every day.
Dialysis probes (CMA12/3 mm, membrane, 20 kD cut-off, Carnegie Medicine, Stockholm, Sweden), were carefully washed before inserting into the guide cannula. The wash was performed with the artificial cerebrospinal fluid (aCSF) medium (NaCl 147 mM, KCl 2.7 mM, CaCl2 1.2 mM, MgCl2 0.85 mM) at room temperature. The dialysis system was then equilibrated at 20° C. at a perfusion rate of 1 μl/min with a Carnegie pump (CMA100). All catheters (FEP tubing, internal volume of 1.2 μl/10 cm, and tubing adaptors) used for microdialysis were treated in the same conditions.
The probes duly prepared were inserted into the guide cannula and the CMA120 Swivel assembly secured to the animal using a plastic collar. Flow through the dialysis probe with aCSF was maintained at a rate of 1 μl/min during the whole experimentation. The first four fractions (corresponding to 2 hours) were discarded to avoid the effects of parenchymal disturbance and to ensure that an approximate steady-state level was reached. Fractions were then collected over a period of 8.5 h during which time the animals remained quiet. The dialysates were automatically collected with an autosampler (microfraction collector CMA 140, Carnegie Medicin) and stored at −80° C. until analysis. […] Perfusion was then maintained for 7 hours with aCSF. The dialysates (30 μl) were collected into 300 μl vials, transferred into dry ice and then kept frozen (−80° C.) until analysis. Frozen samples were shipped to a partner for analysis. At the end of the microdialysis study, a PBS with colored ink was perfused through the probe in order to visualize the dialyzed area.
Catecholamine assay: Concentrations of dopamine, DOPAC, HVA, 5-HIAA, 5-HT, and norepinephrin were determined for each sample by HPLC coupled with electrochemical detection.

## Cc1nnc(-c2cc3c(OC[C@@H](O)CN4CCC(c5ccc(Cl)c(Cl)c5)CC4)cccc3o2)o1 [SON-117, (S)-1-(4-(3,4-dichlorophenyl)piperidino)-3-(2-(5-methyl-1,3,4-oxadiazol-2-yl)benzo(b)furan-4-yloxy)-2-propanol hydrochloride]
T-1 h 30-T-1 h (before administration)
  DOPAC release, MEAN: 101.39 % of respective basal
T-1 h-T-30 min (before administration)
  DOPAC release, MEAN: 103.75 % of respective basal
SON-117 0.1 mg/kg I.P., from 1.5 h to 2.5 h and from 4.5 h to 7 h
  DOPAC levels, change (not statistically significant): tended to induce a slight increase
SON-117 0.1 mg/kg, at 2 h and from 4.5 h to 7 h
  release of DOPAC, trend: trend for an increased release
SON-117 0.3 mg/kg IP
  DOPAC dialysate levels vs mean pre-administration value: no statistically significant differences
SON-117 3 mg/kg IP
  DOPAC dialysate levels vs mean pre-administration value: no statistically significant differences
SON-117 at the three doses tested, in function of time
  DOPAC, difference to the citalopram group (two-way ANOVA): no significant differences
SON-117 group 0.1 mg/kg I.P., T0-T30 min
  DOPAC (% of respective basal) MEAN: 81.81 % of respective basal
SON-117 group 0.1 mg/kg I.P., T30-T1 h
  DOPAC (% of respective basal) MEAN: 104.52 % of respective basal
SON-117 group 0.1 mg/kg I.P., T1 h 30-T2 h
  DOPAC (% of respective basal) MEAN: 144.57 % of respective basal
SON-117 group 0.1 mg/kg I.P., T1 h-T1 h 30
  DOPAC (% of respective basal) MEAN: 112.3 % of respective basal
SON-117 group 0.1 mg/kg I.P., T2 h 30-T3 h
  DOPAC (% of respective basal) MEAN: 94.20 % of respective basal
SON-117 group 0.1 mg/kg I.P., T2 h-T2 h 30
  DOPAC (% of respective basal) MEAN: 102.15 % of respective basal
SON-117 group 0.1 mg/kg I.P., T3 h 30-T4 h
  DOPAC (% of respective basal) MEAN: 96.09 % of respective basal
SON-117 group 0.1 mg/kg I.P., T3 h-T3 h 30
  DOPAC (% of respective basal) MEAN: 90.94 % of respective basal
SON-117 group 0.1 mg/kg I.P., T4 h 30-T5 h
  DOPAC (% of respective basal) MEAN: 120.32 % of respective basal
SON-117 group 0.1 mg/kg I.P., T4 h-T4 h 30
  DOPAC (% of respective basal) MEAN: 142.52 % of respective basal
SON-117 group 0.1 mg/kg I.P., T5 h 30-T6 h
  DOPAC (% of respective basal) MEAN: 122.76 % of respective basal
SON-117 group 0.1 mg/kg I.P., T5 h-T5 h 30
  DOPAC (% of respective basal) MEAN: 129.53 % of respective basal
SON-117 group 0.1 mg/kg I.P., T6 h 30-T7 h
  DOPAC (% of respective basal) MEAN: 137.94 % of respective basal
SON-117 group 0.1 mg/kg I.P., T6 h-T6 h 30
  DOPAC (% of respective basal) MEAN: 127.81 % of respective basal
SON-117 group 0.1 mg/kg I.P., T-30 min-T0 (before administration)
  DOPAC (% of respective basal) MEAN: 90.82 % of respective basal
SON-117 group 0.1 mg/kg I.P., T-1 h 30-T-1 h (before administration)
  DOPAC (% of respective basal) MEAN: 109.18 % of respective basal
SON-117 group 0.1 mg/kg I.P., T-1 h-T-30 min (before administration)
  DOPAC (% of respective basal) MEAN: 100.52 % of respective basal
SON-117 group 0.3 mg/kg I.P., T0-T30 min
  DOPAC (% of respective basal) MEAN: 86.10 % of respective basal
SON-117 group 0.3 mg/kg I.P., T30-T1 h
  DOPAC (% of respective basal) MEAN: 84.32 % of respective basal
SON-117 group 0.3 mg/kg I.P., T1 h 30-T2 h
  DOPAC (% of respective basal) MEAN: 102.17 % of respective basal
SON-117 group 0.3 mg/kg I.P., T1 h-T1 h 30
  DOPAC (% of respective basal) MEAN: 93.91 % of respective basal
SON-117 group 0.3 mg/kg I.P., T2 h 30-T3 h
  DOPAC (% of respective basal) MEAN: 83.76 % of respective basal
SON-117 group 0.3 mg/kg I.P., T2 h-T2 h 30
  DOPAC (% of respective basal) MEAN: 81.99 % of respective basal
SON-117 group 0.3 mg/kg I.P., T3 h 30-T4 h
  DOPAC (% of respective basal) MEAN: 94.46 % of respective basal
SON-117 group 0.3 mg/kg I.P., T3 h-T3 h 30
  DOPAC (% of respective basal) MEAN: 83.66 % of respective basal
SON-117 group 0.3 mg/kg I.P., T4 h 30-T5 h
  DOPAC (% of respective basal) MEAN: 107.30 % of respective basal
SON-117 group 0.3 mg/kg I.P., T4 h-T4 h 30
  DOPAC (% of respective basal) MEAN: 94.25 % of respective basal
SON-117 group 0.3 mg/kg I.P., T5 h 30-T6 h
  DOPAC (% of respective basal) MEAN: 88.68 % of respective basal
SON-117 group 0.3 mg/kg I.P., T5 h-T5 h 30
  DOPAC (% of respective basal) MEAN: 79.90 % of respective basal
SON-117 group 0.3 mg/kg I.P., T6 h 30-T7 h
  DOPAC (% of respective basal) MEAN: 96.87 % of respective basal
SON-117 group 0.3 mg/kg I.P., T6 h-T6 h 30
  DOPAC (% of respective basal) MEAN: 97.32 % of respective basal
SON-117 group 0.3 mg/kg I.P., T-30 min-T0 (before administration)
  DOPAC (% of respective basal) MEAN: 92.84 % of respective basal
SON-117 group 0.3 mg/kg I.P., T-1 h 30-T-1 h (before administration)
  DOPAC (% of respective basal) MEAN: 104.24 % of respective basal
SON-117 group 0.3 mg/kg I.P., T-1 h-T-30 min (before administration)
  DOPAC (% of respective basal) MEAN: 102.91 % of respective basal
